Patent US6652479B2, “Method and apparatus for transcutaneous infusion of carbon dioxide for local relief of pain and other ailments” (Capnia, Inc., priority 2000, dated 2003)

Assays:
allergic rhinitis attack = assay: treatment of allergic rhinitis by carbonated water nasal spray; format: in vivo, human; conditions: carbonated water spray and gaseous CO2 infusion used alternately over a day, one subject
Source text: Because of the observed similarity of the physiological effects of gaseous CO2 and a […] solution (carbonated water) applied to the skin, the inventors believed that a […] solution might be effective for treatment of upper respiratory indications for which infusion of gaseous CO2 is effective. With reference to FIG. 5, to test this hypothesis, a 70-ml commercially marketed plastic “squeeze” bottle 510 for dispensing a physiological saline spray was 3⁄4 filled with fresh effervescing carbonated water. The carbonated water spray was then sprayed into the nose of a subject 520 who was suffering a mild allergic rhinitis attack. […] During the course of a day as allergic rhinitis attacks reoccurred, the carbonated water spray and gaseous CO2 infusion were used alternately and their relative effectiveness assessed. […] The disagreeable aspects cited were the discomfort associated with a liquid being sprayed up the nose and the messiness of the effluent liquid from the nose after the spray. Nevertheless, the carbonated nasal spray is a distinct alternative for treatment of the upper respiratory distress indications, and shares many of the advantages of a gaseous CO2 infusion treatment including effectiveness, ease of use, rapid relief on demand, unlimited dose, low cost, and freedom from aftereffects and other contraindications associated with the use of drugs. […]

[1] = test system: muscular-skeletal pain conditions (cervico-cranial syndrome, cervico-brachial syndrome, lumbalgia); conditions: cited from earlier work
[2] = test system: skin on the right anterior thigh; assay: rate of transcutaneous absorption of gaseous CO2 into a human body (funnel on wet skin); format: in vivo
Description: To determine the inherent rate of absorption and diffusion of CO2 in a “passive” aqueous medium a preliminary in vitro experiment was performed. The apparatus and method employed for measuring the rate of CO2 absorption by a surface is illustrated in FIG. 1. The device was placed on a table top 150, and comprised a source of CO2 in the form of a cylinder 101 and a flow regulator 110, including a pressure regulator 112 and flow meter 113. Polyethylene tubing 115 of approximately 0.2 cm^2 lumen connected the cylinder 101 to a glass funnel 120 having a maximum area of 80 cm^2. An additional length of tubing 125 was used for measurement of changes in gas volume. This gas volume measurement means used in the experiment could be eliminated in a device intended to administer CO2 to a patient's skin surface. The entire system was purged of air by prolonged CO2 flow. The additional length of tubing 125 was purged first, then a bolus of low-volatility (forepump) oil 130 was inserted into its open end and the end plugged. The funnel 120 was then purged with its open end resting on a portion of the selected test surface 140 immediately adjacent to the portion to be tested, and with the purge flow escaping at its edge. At zero time the purge flow was terminated, the plug in the tube 125 end was removed and the funnel was slid onto the test portion of the surface without breaking the seal between the funnel edge and the wet surface. The displacement of the oil bolus 130 within the 0.20 cm^2 lumen of the tube 125 was then observed as CO2 gas was removed from the closed system via absorption in the surface 140; i.e., each cm of displacement corresponded to absorption of 0.20 cc of gas by 80 cm^2 of test surface.
An area of skin on the right anterior thigh sufficiently large for two positions of the funnel 120 applicator was washed thoroughly and soaked with water for fifteen minutes. The funnel 120 was purged of air by prolonged CO2 flow (for about 10 minutes) while seated on the wet skin in the upper thigh position 160, and then was slid to the lower thigh position 170 at zero time. […] In other words, it appeared that less than <0.1 ml of gas was absorbed. […] Therefore, the inventors concluded that some quantity of CO2, sufficient to cause the observed vascular effects, must have diffused into the skin. Therefore, the inventors continued with their experiments to determine if a transcutaneous application of CO2 would reduce local pain.

[3] = in vitro rate of CO2 absorption by water-soaked paper towel (funnel / oil bolus apparatus); format: physicochemical; conditions: 80-cm^2 area test surface, several tests
Description: To determine the inherent rate of absorption and diffusion of CO2 in a “passive” aqueous medium a preliminary in vitro experiment was performed. The apparatus and method employed for measuring the rate of CO2 absorption by a surface is illustrated in FIG. 1. The device was placed on a table top 150, and comprised a source of CO2 in the form of a cylinder 101 and a flow regulator 110, including a pressure regulator 112 and flow meter 113. Polyethylene tubing 115 of approximately 0.2 cm^2 lumen connected the cylinder 101 to a glass funnel 120 having a maximum area of 80 cm^2. An additional length of tubing 125 was used for measurement of changes in gas volume. This gas volume measurement means used in the experiment could be eliminated in a device intended to administer CO2 to a patient's skin surface. The entire system was purged of air by prolonged CO2 flow. The additional length of tubing 125 was purged first, then a bolus of low-volatility (forepump) oil 130 was inserted into its open end and the end plugged. […]
Next, the funnel was placed on test surface 140 of a 0.4-mm thick water-soaked paper towel having about the same thickness as skin. […] The observed initial rate of absorption determined from several such tests fell in the range 0.6-1.2 ml/min, and saturation occurred at 4-10 ml, for the 80-cm^2 area test surface. […]

[4] = after subcutaneous injection of 100-200 ml CO2 gas
[5] = of 335 patients treated, 100-200 ml CO2 gas injected under the skin, 10-15 injections over 2-5 weeks

SMILES: O=C=O [CO2, carbon dioxide]
- relative effectiveness for relief and suppression of allergic rhinitis symptoms (allergic rhinitis attack): equally effective
- diameter of gas emphysemum at injection site [1, 4]: ~8 cm
- skin reaction at the injection site [1, 4]: mild hyperemia
- time for gas emphysemum and hyperemia to disappear after the injection [1, 4]: 3 to 5 min
- patients improved with some remaining distress [1, 5]: 157
- patients who became difficulty-free or were substantially improved [1, 5]: 171
- patients with no improvement [1, 5]: 7
- number of treatments after which improvement of the indicated disorder occurred ([1]; subcutaneous injection of 100-200 ml CO2 gas daily or twice-weekly): 4-5 treatments
- skin reaction over region in contact with CO2 ([2]; after about 10 minutes contact with gaseous CO2): a hyperemia was observed
- aftereffects ([2]; gaseous CO2 on wet skin): no observed aftereffects
- time for reddening to develop in contact with CO2 ([2]; gaseous CO2 on wet skin): three to five
- time for reddening to subside after removal of the CO2 ([2]; gaseous CO2 on wet skin): a similar period
- gas absorbed by the skin ([2]; wet skin, 80 cm^2 funnel, about 10 minutes, several tests): < 0.1 mL
- absorbed gas volume at saturation [3]: 4 to 10 mL
- initial rate of absorption of gaseous CO2 [3]: 0.6 to 1.2 mL/min
